Our source for the melting point values is a melting point compilation (Tetko et al.; mined from patent text by program, amines drawn as free bases though some values may be those of a salt).

Structures are written as SMILES.

Broadly, the melting point is the temperature of the solid-liquid transition. Compound `Cc1cc(-c2ccc(-c3ccco3)cc2)cc(S(N)(=O)=O)c1-n1ccc(C(F)(F)F)n1` yielded a melting point of 87 to 89 °C.

For `CCCCCCCCCCCSCCCN=C=O`, the melting point is 91 to 93 °C.

As for `NCCCc1nc2c([nH]1)-c1ccccc1N(C(=O)c1ccc(NC(=O)c3ccccc3-c3ccccc3)cc1)CC2`, the melting point was in the range of 220 to 223 °C.

In turn, `COCn1cc(C2=C(C#N)C(c3cccc4nonc34)c3c[nH]nc3N2)c2ccccc21` (stereo not drawn) came in with a melting point of 200 °C.

With `CCCCNC(=O)Oc1ccc(N=C=S)cc1`, the melting point lay in the range of 99 to 102 °C.

As to `COc1nc(NC(=S)NS(=O)(=O)c2cccnc2)nc(OC)n1`, the melting point fell in the range of 158 to 160 °C.

Turning to `COCCNC(=O)c1ccc2c(c1)C=CC(C)(C)O2`, the melting point lay within 57 to 60 °C.

Consider `C[C@H](NC(=O)c1cccnc1Oc1cccnc1)c1cccs1`, for which the melting point lay within 196 to 198 °C.

Compound `Cc1ccc(S(=O)(=O)N2Cc3cscc3C2)cc1` came in with a melting point of 125 to 127 °C.

As to `COc1ccc(Oc2cccc(NC(=O)c3ccn4c3CSC4c3cccnc3)c2)cc1` (stereo not drawn), the melting point was 120 °C.

Compound `NC(=O)c1cn(Cc2cccc(F)c2F)cn1` yielded a melting point of 221 to 222 °C.

The compound `COc1cc(-c2ccccc2C)ccc1C(=O)N1Cc2ccc(C(=O)N(C)CC(O)C(O)C(O)C(O)CO)n2Cc2ccccc21` (stereo not drawn) showed a melting point of 144 to 146 °C.

On to `Cc1cc(OC[C@@H]2CCC(=O)N2)cc(C)c1-c1cccc2c1OC[C@H]2Nc1ccc2c(c1)OC[C@H]2CC(=O)O`, for which the melting point worked out at 161 °C.

Turning to `COc1nc(NC(=O)NS(=O)(=O)c2c(Br)csc2C(=O)c2cccs2)nc(OC)n1`, the melting point amounted to 115 °C.

Compound `CN1CCC(c2c[nH]c3ccc(C(=O)c4ccc(C(F)(F)F)cc4)cc23)CC1` showed a melting point of 160 to 162 °C.

Regarding `O=C(O)CCCCCNC(=O)C(F)(F)F`, the melting point lay within 90 to 91 °C.

For `O=C(O)CN1CCOc2ccc([N+](=O)[O-])cc2C1=O`, the melting point is 110 to 120 °C.

Regarding `CCc1cc(C)nc2c(C)ccc(N)c12`, the melting point fell in the range of 60 to 62 °C.

The compound `CSc1ccc([N+](=O)[O-])cc1C(=O)OC(C)(C)C` showed a melting point of 112 to 113 °C.

Consider `CCCOc1ccccc1C1=NC(=O)C2=NC(SC)=NC2=N1`, for which the melting point was 245 to 247 °C.

`COCCCCCC(=O)c1ccc(S(C)=O)cc1` (stereo not drawn) showed a melting point of 74 to 77 °C.

`COc1ccc(-c2ccc(C(=O)Nc3ccc4cc(CN5C(C)CCCC5C)ccc4c3)cc2)cc1` (stereo not drawn) yielded a melting point of 199 to 200 °C.

The compound `Cc1cc(F)ccc1NCC(=O)NCc1ccccc1` gave a melting point of 75 to 76 °C.

`CC[C@H](C)[C@H](N)C(=O)N(CC(C)C)C(=O)[C@@H]1CCCN1CC(=O)[C@H](Cc1ccccc1)NC(=O)OCc1ccccc1` displayed a melting point of 80 to 81 °C.

`CS(=O)(=O)c1ccc(C[C@H](CO)NC(=O)OCc2ccccc2)cc1` came in with a melting point of 110 to 112 °C.

On to `CCOC(=O)N1CC[C@H](O)[C@@H]1C(c1ccccc1)c1ccccc1` (relative stereo), for which the melting point fell in the range of 104 to 105 °C.

`CCCc1nc(C)cn1-c1cc(F)ccc1N` came in with a melting point of 38 to 42 °C.

`O=C(O)/C(=N\OCF)c1nsc(NC(c2ccccc2)(c2ccccc2)c2ccccc2)n1`: the melting point lay in the range of 144 to 146 °C.

Compound `Cn1c2ccc(Cl)cc2c2cc(C(=O)O)sc21` returned a melting point of 259 to 262 °C.

In the case of `COC(=O)c1ccc(SC)c(OC2CCCC2)c1`, the melting point was in the range of 53 to 55 °C.

In the case of `CC(C)c1ccc(N(Cc2ccc(N(C)C)cc2)C(=O)C2CCCc3c(O)cccc32)cc1` (stereo not drawn), the melting point was in the range of 200 to 202 °C.

For the compound `COc1cc(CCCl)cc2c1OCO2`, the melting point lay within 67 to 68 °C.

Regarding `NCCCC=CCCC(=O)O`, the melting point lay in the range of 139 to 144 °C.

In turn, `O=C(O)c1cc2cccc(Cl)c2s1` returned a melting point of 262 to 265 °C.

`CN1CCC(Oc2ccc(Br)cc2C(N)=O)C1` (stereo not drawn) came in with a melting point of 160 to 162 °C.

In turn, `COc1ccccc1S(=O)(=O)N(C)c1cccc2cc(C3=NCC(CC(=O)Nc4nnc[nH]4)S3)[nH]c12` (stereo not drawn) returned a melting point of 208 to 209 °C.

The compound `N#CCc1coc2ccc3c(c12)C=CCO3` gave a melting point of 99 to 101 °C.

Compound `CS(=O)(=O)c1ccc(N2CCC3(CC2)OCCO3)cc1` gave a melting point of 192 to 194 °C.

`CON=C(Cn1c(=O)ccc2ccccc21)c1ccc(N2CCCC2)cc1` had a melting point of 169 to 171 °C.

For the compound `CN=C(O)c1cc(Cl)c(Sc2ccccc2C(=O)O)cc1C(=O)O`, the melting point lay within 258 to 266 °C.

In turn, `Cc1cc(C(O)(C(F)(F)F)C(F)(F)F)cc(C)c1OCC(=O)NCc1ccccc1` had a melting point of 142 to 144 °C.

As to `Cc1ccccc1C1=C(CC(=O)Nc2c(C(C)C)cccc2C(C)C)CN(C)c2ccc(Cl)cc21`, the melting point stood at 160 °C.

As to `CC(C)(C)NNC(=O)c1ccccc1CO`, the melting point is 116 to 118 °C.

In turn, `Cc1nnsc1C(=O)Nc1ccc(-n2nc(C(F)(F)F)cc2C#N)cc1` gave a melting point of 193 to 195 °C.

Turning to `CCCCCCCCCCCCCCCCCCS(=O)c1cc2ccccc2cc1O` (stereo not drawn), the melting point fell in the range of 107 to 108 °C.

In turn, `CC1(C)NC(=O)N(CC(CS(=O)(=O)c2ccc(-c3ccc(OC(F)(F)F)cc3)cc2)N(O)C=O)C1=O` (stereo not drawn) displayed a melting point of 195 to 197 °C.

In turn, `COC(=O)c1cccc(-c2nc(COc3ccc(CCl)cc3OC)c(C)o2)c1` registered a melting point of 125 to 126 °C.

Take `Cc1cc(-n2cncn2)c2cccc(OCc3c(Cl)ccc(S(=O)(=O)N4CCC[C@H]4C(=O)NCC4CCN(CC(=O)OC(C)(C)C)CC4)c3Cl)c2n1`: the melting point was determined as 50 °C.

For `CCOC(=O)c1ccc(-c2nnc(-c3ccccc3[N+](=O)[O-])o2)cc1`, the melting point fell in the range of 127 to 128 °C.

The compound `CC(C)c1cccc(C(C)C)c1NS(=O)(=O)CC(=O)N(Cc1ccccc1)C(C)C` showed a melting point of 168 to 170 °C.

For `CNC(=O)N1CC(Oc2cccc(F)c2)C1`, the melting point fell in the range of 155 to 156 °C.

Turning to `CCc1nc(C)cn1-c1cc2c(cc1Cl)[nH]c(=O)c1n[nH]c(=O)n12`, the melting point lay within 273 to 275 °C.

In turn, `Cn1ncc(C(=O)N2CCOCC2)c1C(=O)Nc1ccn2nc(-c3cccnc3)nc2c1` showed a melting point of 218 to 220 °C.

In turn, `COC(=O)c1cc2c3ccccc3n(C)c2s1` had a melting point of 134 °C.

In turn, `O=C(O)Cn1cc(Cc2nc3cc(C(F)(F)F)ccc3s2)c2ccc(Br)cc21` returned a melting point of 265 to 267 °C.

Turning to `COC1CSC2=C(SC1)C(OC(=O)Oc1ccccc1)N(c1ccc(Cl)cn1)C2=O` (stereo not drawn), the melting point stood at 167 °C.

`Nc1ccc(Oc2c(Cl)cc(C(F)(F)F)c(Cl)c2Cl)cc1Cl` had a melting point of 128 °C.

Take `COc1ccc(S(=O)(=O)C(CC=C(C)C)(Cc2cccnc2)C(=O)NO)cc1` (stereo not drawn): the melting point is 89 to 92 °C.

`CC(=O)O[C@@H](Cc1ccc(OCCN2CCC(C)(C)c3cc(C(=O)c4ccccc4)ccc32)cc1)C(=O)O` registered a melting point of 60 to 62 °C.

In turn, `CCN(CC)CCCNC(=S)N1CC(Oc2ccc(C(F)(F)F)cc2)C1` gave a melting point of 109 to 110 °C.

`Brc1ccc2cc(OCc3ccccc3)c(C34CC5CC(CC(C5)C3)C4)cc2c1`: the melting point lay in the range of 150 to 151 °C.

As for `Clc1ccc(Cc2c(Cl)nc3ncnn3c2Cl)cc1`, the melting point fell in the range of 165 to 167 °C.

Take `CCOC(=O)C1(O)c2ccccc2S(=O)(=O)N1Cc1ccc(Br)cc1` (stereo not drawn): the melting point lay in the range of 152 to 153 °C.

As to `O=c1c2c(oc3c1nnn3Cc1ccccc1)CSC2`, the melting point lay in the range of 210 to 212 °C.

In turn, `O=C1NCCN1CCN1CC=C(c2cn(-c3ccc(F)cc3)c3ccc(C(F)(F)F)cc23)CC1` showed a melting point of 200 °C.

Take `CCN1C=C(C(=O)c2c(C)nn3ccccc23)CCC1`: the melting point lay in the range of 104 to 105 °C.

Consider `CC1CC(CN2CCNC2=N[N+](=O)[O-])CO1` (stereo not drawn), for which the melting point is 109 to 110 °C.

Regarding `Cn1cc(C2=C(c3ccsc3)C(=O)NC2=O)c2ccccc21`, the melting point fell in the range of 211 to 212 °C.

`CCOC(Cc1ccc(NC/C=C/c2ccc(OS(C)(=O)=O)cc2)cc1)C(=O)O` (stereo not drawn) returned a melting point of 146 to 148 °C.

`O=S(=O)(Oc1ccccc1)c1ccc(O)cc1`: the melting point was 114 to 116 °C.

With `CC(C)CCOC(=O)c1ccc2c(=O)c3ccccc3ccc2c1`, the melting point was 26 to 30 °C.

For `CC(C)(C)C1=C(C(=O)OCc2ccc([N+](=O)[O-])cc2)N2C(=O)C(C)(C)C2O1` (stereo not drawn), the melting point is 119 to 120 °C.

`CC(O)(c1ccc(F)cc1)C1CCNCC1` (stereo not drawn) registered a melting point of 184 to 186 °C.

In turn, `CCOc1cccc(NC(=O)Nc2ccc(N3CCN(C(=O)Nc4ccc(OCCO)cc4C(F)(F)F)CC3)cc2)c1` had a melting point of 108 to 110 °C.

Take `N#CCn1nc2n(c1=O)-c1ccc(Cl)nc1C(c1ccccc1Cl)=NC2`: the melting point is 198 to 200 °C.

On to `CCOC(=O)c1cn(C)c2sc(CCl)cc2c1=O`, for which the melting point lay in the range of 111 to 112 °C.

The compound `O=C1CC(c2cccc(-n3ccnc3)c2)=Nc2cc(N3CCC4(CC3)OCCO4)c(-c3ccccc3F)cc2N1` showed a melting point of 225 °C.

As to `CCCCCCCCOC(=O)Nc1ccccc1C1Cc2ccccc2N1` (stereo not drawn), the melting point lay in the range of 99 to 102 °C.

On to `CC(=O)SC(C)C(Cc1ccccc1)C(=O)Nc1cccc(C(=O)O)c1` (stereo not drawn), for which the melting point was 180 to 182 °C.

In the case of `COC(=O)C1(NC(=O)Cc2cc(-c3ccc(Cl)cc3)ccc2Cl)CCC(F)(F)CC1`, the melting point was 146 to 147 °C.

`O=C(O)CCSC(C(=O)O)c1ccccc1CCCCCCCCc1ccccc1` (stereo not drawn) registered a melting point of 86 to 87 °C.

In turn, `c1cnc2c(c1)NCC2` displayed a melting point of 63 °C.

As to `C=CCONC(=O)c1nc(-c2ccc(F)cc2)cc(N)c1Cl`, the melting point lay in the range of 182 to 185 °C.

As to `CC1CC2C3CCC4=CC(=O)C=CC4(C)C3=CCC2(C)C1(O)C(=O)CO` (stereo not drawn), the melting point lay in the range of 216 to 218 °C.

In turn, `COc1cccc2c(CCC3CC(=O)CCC3=O)cccc12` (stereo not drawn) had a melting point of 94 to 100 °C.

`O=C1Nc2cc(Cl)c(Cl)cc2C1(Br)c1ccccc1Cl` (stereo not drawn): the melting point lay within 215 to 218 °C.

For the compound `NC(=NC(=O)c1nc(Cl)c(N)nc1N)NCCCCc1ccc(OCC(=O)Nc2ccccc2)cc1`, the melting point lay within 168 to 170 °C.

`N=C(N)Nc1nc2ccc([N+](=O)[O-])cc2[nH]1` yielded a melting point of 305 to 307 °C.
